According to patent US20080090893A1, “Medicinal Composition for Prevention of Transition to Operative Treatment for Prostatic Hypertrophy” (Kissei Pharmaceutial Co., Ltd., priority 2004, published 2008):
Counter-ions that a name gives are not always drawn.

Columns and labels:
[1] = system: patients of benign prostatic hyperplasia who are subject to surgical therapy (overall severity moderate and severe); assay: Long-term administration test, 52 weeks (maximum flow rate Qmax); assay type: in vivo; settings: 4 mg silodosin twice a day oral
Description: Based on the results from a long-term administration test in patients of benign prostatic hyperplasia, effects of silodosin on objective symptoms of patients who are subject to surgical therapy were examined. As the patients who are subject to surgical therapy, patients whose overall severities before administration were “moderate” and “severe” according to the criteria for judging overall severity described in the above Table 1 were extracted.
Objects: 229 patients who are subject to surgical therapy for benign prostatic, hyperplasia
Analyzed groups: 101 severe patients (reduced to 2 mg/once in 9 cases among them), 128 moderate patients (reduced to 2 mg/once in 17 cases among them)

[2] = system: patients of benign prostatic hyperplasia who are subject to surgical therapy (overall severity severe); assay: Placebo-controlled, parallel groups-comparing double blind trial, 12 weeks oral administration (I-PSS total score, QOL score); assay type: in vivo
Experimental: Based on the results of a placebo-controlled, parallel groups-comparing double blind trial carried out in patients of benign prostatic hyperplasia, clinical effects of silodosin and tamsulosin hydrochloride in patients who are subject to surgical therapy were evaluated. As the patients who are subject to surgical therapy, patients whose overall severity before administration was “severe” based on the criteria for judging overall severity (Non-patent Reference 3) were extracted.
Objects: 147 patients who are subject to surgical therapy for benign prostatic hyperplasia
Administration method: oral administration for 12 weeks
Administered groups: Silodosin group (4 mg silodosin/once, twice a day, 63 patients), Tamsulosin group (0.2 mg tamsulosin hydrochloride, once a day, 55 patients) and Placebo group (placebo drug, 29 patients).
Primary endpoints: I-PSS total score, QOL score
Criteria for judging overall severity: in the severity of respective judging items shown in Table 1, the overall severity is regarded as “severe” when “severe” is present in 2 items or more. In this connection, the Qmax in the table means maximum flow rate (mL/second), RU means residual urine volume (mL) and PV means estimated prostate volume (mL) by ultrasonic tomography.
I-PSS items questioned • (1) Sensation of residual urine
The scores of (1) to (6) are as follows.
Not at all: 0 point, less than 1 time in 5: 1 point, less than 1 time in 2: 2 points, about 1 time in 2: 3 points, more than 1 time in 2: 4 points, almost always: 5 points. • (7) Nocturia
None: 0 point, 1 time: 1 point, 2 times: 2 points, 3 times: 3 points, 4 times: 4 points, 5 times or more: 5 points.
Very satisfied 0 point, satisfied: 1 point, generally satisfied: 2 points, neither satisfied nor unsatisfied: 3 points, a little unsatisfied: 4 points, unsatisfied: 5 points, very unsatisfied: 6 points.
Regarding the case of patients whose overall severity before administration was severe based on the criteria for judging overall severity (Non-patent Reference 3), changes in I-PSS total score and QOL score at the final evaluation were compared. The results are shown in Table 2 and Table 3, respectively.
Next, the effect of each administration group to improve the severity of I-PSS total score was evaluated in the patients of benign prostatic hyperplasia whose overall severity before administration was severe.

[3] = severity of I-PSS total score, severe patients
[4] = overall severity before administration severe, oral, silodosin 4 mg twice a day, tamsulosin hydrochloride 0.2 mg once a day

C[C@H](Cc1cc2c(c(C(N)=O)c1)N(CCCO)CC2)NCCOc1ccccc1OCC(F)(F)F [Silodosin, (−)-1-(3-hydroxypropyl)-5-((2R)-2-{[2-({2-[(2,2,2-trifluoroethyl)oxy]phenyl}oxy)ethyl]amino}propyl)-2,3-dihydro-1H-indole-7-carboxamide]
Maximum flow rate (Qmax), change after 52 weeks (mean ± SD) ([1]; Moderate group): 2.3 ± 5.3 mL/s | Maximum flow rate (Qmax), change after 52 weeks (mean ± SD) ([1]; Moderate group, listed as silodosin): 2.3 mL/s | Maximum flow rate (Qmax), change after 52 weeks (mean ± SD) ([1]; Severe group): 3.2 ± 4.9 mL/s | Maximum flow rate (Qmax), change after 52 weeks (mean ± SD) ([1]; Severe group, listed as silodosin): 3.2 mL/s | Severity of subjective symptoms at the end, Mild (0-7), number of patients [2, 3]: 24 | Severity of subjective symptoms at the end, Moderate (8-19), % of patients [2, 3]: (52.4%) | Severity of subjective symptoms at the end, Moderate (8-19), number of patients [2, 3]: 33 | Severity of subjective symptoms at the end, Severe (20-35), % of patients [2, 3]: (9.5%) | Severity of subjective symptoms at the end, Severe (20-35), number of patients [2, 3]: 6

CCOc1ccccc1OCCN[C@H](C)Cc1ccc(OC)c(S(N)(=O)=O)c1 [Tamsulosin, tamsulosin hydrochloride]
Change in I-PSS at the end Mean ± standard deviation [2, 4]: −8.6 ± 6.2^3) N.S. | Change in QOL at the end Mean ± SD [2, 4]: −1.5 ± 1.3^3) N.S. | Severity of subjective symptoms at the end, Mild (0-7), % of patients [2, 3]: (21.8%) | Severity of subjective symptoms at the end, Mild (0-7), number of patients [2, 3]: 12 | Severity of subjective symptoms at the end, Moderate (8-19), % of patients [2, 3]: (61.8%) | Severity of subjective symptoms at the end, Moderate (8-19), number of patients [2, 3]: 34 | Severity of subjective symptoms at the end, Severe (20-35), % of patients [2, 3]: (16.4%) | Severity of subjective symptoms at the end, Severe (20-35), number of patients [2, 3]: 9
